Legend:
L5178Y [1] = assay: Cytotoxicity against mouse L5178Y cells assessed as cell viability at 10 ug/ml after 24 hrs by MTT assay relative to control; assay type: functional; conditions: read-out: Activity
[2] = tested on: Mycobacterium tuberculosis; assay: Antitubercular activity against Mycobacterium tuberculosis H37Rv assessed as reduction in microbial growth by CLSI based broth microdilution method; assay type: functional
Staphylococcus aureus [3] = assay: Antibacterial activity against Staphylococcus aureus ATCC 29213 assessed as reduction in microbial growth by CLSI based broth microdilution method; assay type: functional
Acinetobacter baumannii = assay: […] activity against Acinetobacter baumannii BAA1605 assessed as reduction in microbial growth by CLSI based broth microdilution method; assay type: functional
Pseudomonas aeruginosa = assay: Antibacterial activity against Pseudomonas aeruginosa 27853 assessed as reduction in microbial growth by CLSI based broth microdilution method; assay type: functional
Ustilago maydis [4] = assay: Antifungal activity against Ustilago maydis AB33 assessed as diameter of zone inhibition at 100 ug by Kirby-Bauer disk diffusion method; assay type: functional; conditions: Mycosarcoma maydis
Saccharomyces cerevisiae [5] = assay: Antifungal activity against Saccharomyces cerevisiae ESM356-1 assessed as diameter of zone inhibition at 100 ug by Kirby-Bauer disk diffusion method; assay type: functional, organism-based; conditions: dose 100.0 µg
Ustilago maydis [6] = assay: Antifungal activity against Ustilago maydis AB33 assessed as diameter of zone inhibition at 50 ug by Kirby-Bauer disk diffusion method; assay type: functional; conditions: Mycosarcoma maydis, read-out: DIZ
Saccharomyces cerevisiae [7] = assay: Antifungal activity against Saccharomyces cerevisiae ESM356-1 assessed as diameter of zone inhibition at 50 ug by Kirby-Bauer disk diffusion method; assay type: functional; conditions: read-out: DIZ
Staphylococcus aureus [8] = assay: Antibacterial activity against Staphylococcus aureus ATCC 700699 assessed as reduction in microbial growth by CLSI based broth microdilution method; assay type: functional
Enterococcus faecalis = assay: […] activity against Enterococcus faecalis ATCC 29212 assessed as reduction in microbial growth by CLSI based broth microdilution method; assay type: functional
L5178Y [9] = assay: Cytotoxicity against mouse L5178Y cells assessed as reduction in cell viability after 24 hrs by MTT assay; assay type: functional, cell-based

| Compound | viability at 10 µg/mL (L5178Y [1]) [%] | MIC [2] [µM] | MIC (Staphylococcus aureus [3]) [µM] | MIC (Acinetobacter baumannii) [µM] | MIC (Pseudomonas aeruginosa) [µM] | further results |
| --- | --- | --- | --- | --- | --- | --- |
| CC(C)=C1NC(=O)C(=C(N)CC(O)C[C@H](C)O)C1=O (some centres undefined) | 53.1 | 100 | > 100 | > 100 | > 100 | – |
| CC(C)=C1NC(=O)C2=C1O[C@H](C[C@H](C)O)CC2=O | 100 | > 100 | > 100 | > 100 | > 100 | – |
| NYSTATIN | – | – | – | – | – | inhibition zone (IZ) (Ustilago maydis [4]; dose 100.0 µg): 32.7 mm; inhibition zone (IZ) (Saccharomyces cerevisiae [5]): 7.8 mm |
| CC(C)=C1NC(=O)C(=C(N)CCCC(C)O)C1=O (mixture of isomers) | 50.9 | 100 | > 100 | > 100 | > 100 | – |
| CC(C)=C1NC(=O)C2=C1O[C@@H](C[C@H](C)O)CC2=O | – | > 100 | > 100 | > 100 | > 100 | – |
| CN[C@H]1C[C@@H](N)[C@H](O)[C@@H](O[C@@H]2O[C@H](CO)[C@H](O)[C@@H]3O[C@@]4(O[C@H]23)O[C@H]([C@H](N)CO)[C@H](O)[C@H](O)[C@H]4O)[C@@H]1O | – | – | – | – | – | zone of inhibition at 50 µg/disc (Ustilago maydis [6]): 8.3 mm; zone of inhibition at 50 µg/disc (Saccharomyces cerevisiae [7]): 8.7 mm |
| CC(C)=C1NC(=O)C(=C(N)CC(O)C[C@@H](C)O)C1=O (some centres undefined) | 82.2 | 100 | > 100 | > 100 | > 100 | – |
| CC(C)=C1NC(=O)C(=C(N)/C=C/CC(C)O)C1=O (centres undefined) | 32.8 | 100 | > 100 | > 100 | > 100 | – |
| CC(C)=C1NC(=O)C(=Cc2ccc(O)cc2)C1=O (mixture of isomers) | 18.2 | > 100 | 50 | > 100 | > 100 | MIC (Staphylococcus aureus [8]): 25 µM; MIC (Enterococcus faecalis): > 100 µM |
| C/C=C1\NC(=O)[C@H](Cc2ccccc2)NC(=O)[C@H](C(C)C)NC(=O)[C@@H]([C@@H](C)CC)NC(=O)[C@@H](NC(=O)[C@H](NC(=O)[C@H](CCCN)NC(=O)[C@H]2CCCN2C(=O)[C@@H](NC(=O)C(NC(=O)[C@@H](NC(=O)[C@@H](NC(=O)CCCC(C)C)C(C)C)[C@@H](C)O)C(C)C)C(C)C)[C@@H](C)CC)[C@@H](C)OC(=O)[C@H](C(C)C)NC1=O (some centres undefined) | 0 | – | – | – | – | EC50 (L5178Y [9]): 4.3 µM |
| CC(C)=C1NC(=O)C(=C2C=CCC(C)O2)C1=O (centres undefined) | 0 | > 100 | > 100 | > 100 | > 100 | EC50 (L5178Y [9]): 3.7 µM; zone of inhibition at 100 µg/disc (Ustilago maydis [4]; read-out: DIZ): 9.7 mm |

From ChEMBL document CHEMBL4680203, “Cladosins L-O, new hybrid polyketides from the endophytic fungus Cladosporium sphaerospermum WBS017” (Eur J Med Chem, 2020)
